Results: PMC10078976 (Nature chemistry, 2022)

Columns and labels:
[1] = lasso peptides, aspartimide hydrolysis; cited from earlier work
[2] = biological target: doubly dehydrated C62A ThfA (Thermobifida fusca); experiment: BLI
[3] = biological target: unmodified C62A ThfA (Thermobifida fusca); experiment: BLI

Row | Kd [2] | Kd [3] | Molecule | regioselectivity of aspartimide opening [1]
1 | – | – | cellulonodin-2 | open exclusively to the Asp backbone form
2 | – | – | lihuanodin | open exclusively to the Asp backbone form
3 | 0.018 µM | 0.028 µM | maltose binding protein (MBP) fusion to ThfB (enzyme, modifications not checked) MSQAEYEFAATEARRGFGGIINSLTGWINHPSAIGRAEYKPYQLHHAVQAGLNVPRTLITNDPKQAKGWCARVGDVVYKPLSAPSWLENGDTYVVFTTPITPDQWGDPAIGRTAHMFQQRLDKEFEVRLTMVDGKAFPAAIHAHSDAARIDWRSDYDALTYSIPTVPQRVLTGARDLLRRLHLRYAALDFIVSPDGRWHFLEVNPNGQYGWIEEHTGQPISDAIADALTRKEN | –
